#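 A five-concentration, 48-hour dose response in 96-well plates underlies each endpoint, interpolated linearly between surrounding concentrations. At the GI50, growth is halved. TGI marks complete inhibition of growth.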
# Tests used:
# Test in all cases: inhibition of tumour cell growth, NCI panel, 48 h
# [1] = tested on: 786-0 renal
# [2] = tested on: A498 renal
# [3] = tested on: A549 NSCLC
# [4] = tested on: ACHN renal
# [5] = tested on: BT-549 breast
# [6] = tested on: CAKI-1 renal
# [7] = tested on: CCRF-CEM leukemia
# [8] = tested on: COLO 205 colon
# [9] = tested on: DU-145 prostate
# [10] = tested on: EKVX NSCLC
# [11] = tested on: HCC-2998 colon
# [12] = tested on: HCT-116 colon
# [13] = tested on: HCT-15 colon
# [14] = tested on: HL-60(TB) leukemia
# [15] = tested on: HOP-62 NSCLC
# [16] = tested on: HOP-92 NSCLC
# [17] = tested on: HS 578T breast
# [18] = tested on: HT29 colon
# [19] = tested on: IGROV1 ovarian
# [20] = tested on: K-562 leukemia
# [21] = tested on: KM12 colon
# [22] = tested on: LOX IMVI melanoma
# [23] = tested on: M14 melanoma
# [24] = tested on: MALME-3M melanoma
# [25] = tested on: MCF7 breast
# [26] = tested on: MDA-MB-231 breast
# [27] = tested on: MDA-MB-435
# [28] = tested on: MOLT-4 leukemia
# [29] = tested on: NCI-H226 lung
# [30] = tested on: NCI-H23 lung
# [31] = tested on: NCI-H460 lung
# [32] = tested on: NCI-H522 lung
# [33] = tested on: NCI/ADR-RES ovarian
# [34] = tested on: OVCAR-3 ovarian
# [35] = tested on: OVCAR-4 ovarian
# [36] = tested on: OVCAR-5 ovarian
# [37] = tested on: OVCAR-8 ovarian
# [38] = tested on: PC-3 prostate
# [39] = tested on: RPMI-8226 leukemia
# [40] = tested on: RXF 393 renal
# [41] = tested on: SF-268 CNS
# [42] = tested on: SF-295 CNS
# [43] = tested on: SF-539 CNS
# [44] = tested on: SK-MEL-2 melanoma
# [45] = tested on: SK-MEL-28 melanoma
# [46] = tested on: SK-MEL-5 melanoma
# [47] = tested on: SK-OV-3 ovarian
# [48] = tested on: SN12C renal
# [49] = tested on: SNB-19 CNS
# [50] = tested on: SNB-75 CNS
# [51] = tested on: SR leukemia
# [52] = tested on: SW-620 colon
# [53] = tested on: T-47D breast
# [54] = tested on: TK-10 renal
# [55] = tested on: U251 CNS
# [56] = tested on: UACC-257 melanoma
# [57] = tested on: UACC-62 melanoma
# [58] = tested on: UO-31 renal
smiles,measurement,setting,value
FC(F)(F)CNc1nccc(-c2cnn3ncccc23)n1,GI50,[1],9.67 µM
same,TGI,[1],> 25 µM
same,GI50,[2],3.85 µM
same,TGI,[2],> 22.6 µM
same,GI50,[3],10.3 µM
same,TGI,[3],> 25 µM
same,GI50,[4],6.41 µM
same,TGI,[4],> 25 µM
same,GI50,[5],> 14.1 µM
same,TGI,[5],> 25 µM
same,GI50,[6],15.9 µM
same,TGI,[6],> 25 µM
same,GI50,[7],> 18.9 µM
same,TGI,[7],> 25 µM
same,GI50,[8],8.58 µM
same,TGI,[8],> 25 µM
same,GI50,[9],12 µM
same,TGI,[9],> 25 µM
same,GI50,[10],15.1 µM
same,TGI,[10],> 25 µM
same,GI50,[11],> 25 µM
same,TGI,[11],> 25 µM
same,GI50,[12],8.3 µM
same,TGI,[12],> 25 µM
same,GI50,[13],16.1 µM
same,TGI,[13],> 25 µM
same,GI50,[14],8.35 µM
same,TGI,[14],> 19.9 µM
same,GI50,[15],> 13.6 µM
same,TGI,[15],> 25 µM
same,GI50,[16],6.13 µM
same,TGI,[16],> 25 µM
same,GI50,[17],8.14 µM
same,TGI,[17],> 25 µM
same,GI50,[18],16.3 µM
same,TGI,[18],> 25 µM
same,GI50,[19],11.9 µM
same,TGI,[19],> 25 µM
same,GI50,[20],> 25 µM
same,TGI,[20],> 25 µM
same,GI50,[21],9.54 µM
same,TGI,[21],> 25 µM
same,GI50,[22],10.7 µM
same,TGI,[22],> 25 µM
same,GI50,[23],11.5 µM
same,TGI,[23],> 25 µM
same,GI50,[24],> 25 µM
same,TGI,[24],> 25 µM
same,GI50,[25],7.3 µM
same,TGI,[25],> 25 µM
same,GI50,[26],> 25 µM
same,TGI,[26],> 25 µM
same,GI50,[27],13.7 µM
same,TGI,[27],> 25 µM
same,GI50,[28],> 25 µM
same,TGI,[28],> 25 µM
same,GI50,[29],12.6 µM
same,TGI,[29],> 25 µM
same,GI50,[30],9.54 µM
same,TGI,[30],> 25 µM
same,GI50,[31],10.2 µM
same,TGI,[31],> 25 µM
same,GI50,[32],9.91 µM
same,TGI,[32],> 25 µM
same,GI50,[33],13.6 µM
same,TGI,[33],> 25 µM
same,GI50,[34],10.5 µM
same,TGI,[34],> 25 µM
same,GI50,[35],> 25 µM
same,TGI,[35],> 25 µM
same,GI50,[36],9.68 µM
same,TGI,[36],> 25 µM
same,GI50,[37],8.58 µM
same,TGI,[37],> 25 µM
same,GI50,[38],24.5 µM
same,TGI,[38],> 25 µM
same,GI50,[39],> 17.5 µM
same,TGI,[39],> 25 µM
same,GI50,[40],4.86 µM
same,TGI,[40],12.4 µM
same,GI50,[41],8.24 µM
same,TGI,[41],> 25 µM
same,GI50,[42],11.9 µM
same,TGI,[42],> 25 µM
same,GI50,[43],7.76 µM
same,TGI,[43],> 25 µM
same,GI50,[44],8.72 µM
same,TGI,[44],> 25 µM
same,GI50,[45],8.13 µM
same,TGI,[45],> 25 µM
same,GI50,[46],10.5 µM
same,TGI,[46],> 25 µM
same,GI50,[47],> 25 µM
same,TGI,[47],> 25 µM
same,GI50,[48],14.5 µM
same,TGI,[48],> 25 µM
same,GI50,[49],12.7 µM
same,TGI,[49],> 25 µM
same,GI50,[50],11.3 µM
same,TGI,[50],> 25 µM
same,GI50,[51],6.88 µM
same,TGI,[51],> 25 µM
same,GI50,[52],10.9 µM
same,TGI,[52],> 25 µM
same,GI50,[53],8.93 µM
same,TGI,[53],> 25 µM
same,GI50,[54],10.3 µM
same,TGI,[54],> 25 µM
same,GI50,[55],9.82 µM
same,TGI,[55],> 25 µM
same,GI50,[56],> 19.2 µM
same,TGI,[56],> 25 µM
same,GI50,[57],10.9 µM
same,TGI,[57],> 25 µM
same,GI50,[58],15.3 µM
same,TGI,[58],> 25 µM
